# In patent US20190331687A1, “CANCER TREATMENT” (PFIZER INC., priority 2014, published 2019):
# Test system: metastatic renal cell carcinoma (mRCC)
# Experiment: Study A4061032 (AXIS phase 3 trial): PFS and OS of axitinib-treated mRCC patients by tumor CD68 IHC stratum (median cut off)
# Assay type: in vivo, human
# Details: for median OS / median progression free survival (PFS): regardless of prior treatment
# Description: Study A4061032 (ClinicalTrials.gov Identifier: NCT00678392) was a phase 3 registrational trial entitled “Axitinib (AG-013736) as second line therapy for metastatic renal cell cancer: Axis trial”. […] A total of 650 patients were planned to be enrolled, and 723 subjects were eventually enrolled in the study.
# As described in further detail in the Examples, formalin-fixed paraffin embedded (FFPE) tumor samples were collected from patients who participated in A4061032, and who provided specific consent for collection of tumor sample. Tumor myeloid (cluster of differentiation 68 “CD68”) or lymphocyte (cluster of differentiation 3 “CD3”) infiltration was assessed by immunohistochemistry (IHC) in tumor samples from 52 axitinib-treated patients. The aim was to investigate the potential association of these biomarkers with efficacy, consistent with the hypothesis that myeloid infiltration confers resistance to anti-angiogenic agents targeting the VEGF-VEGFR2 pathway (see Shojaei et al. (2007) Nat. Biotechnol. 25(8):911-920; and Lin et al. (2010) Eur. J. Cancer Suppl. 8(7): 191).
# The evaluation of CD3 and CD68 was performed by image analysis from a whole slide scan. The region of interest was circled, and an image analysis algorithm was run. The percentage of positive cells (number of positive cells/total number of cells) and the density of positive cells (e.g. number of positive cells/mm^2) was measured. Some patients donated FFPE blocks, and some donated slides cut from blocks. Samples from all patients were analyzed, whether they were provided as slides or blocks.
# This study was a 2-arm, randomized, open-label, multi-center phase 3 study of axitinib versus sorafenib in patients with metastatic renal cell carcinoma (mRCC), after failure following one prior systematic first-line regimen containing one or more of the following agents: sunitinib, bevacizumab+IFN α, temsirolimus, or cytokine(s). Overall, 723 patients with mRCC were randomized and enrolled in this study, among which 52 axitinib-treated patients were evaluable for immunohistochemistry (IHC) analysis; further, 33 of the 52 patients were previously treated with Sutent®.
# All 52 patients were evaluable for both CD3 and CD68. Of the 52 CD3 and CD68 evaluable patients, 26 donated formalin-fixed paraffin embedded (FFPE) tumor blocks, and 26 donated slides for analysis. Mosaic Laboratories provided FFPE material representing human normal and human cancer. Specimens were procured under an IRB-reviewed protocol (MOS001) that allows for use of remnant, de-identified, or anonymized human samples for in vitro analysis under the guidelines defining ‘Exemption from Human Subject Research’ as defined by the Office of Human Research Protection. The CD68 mouse monoclonal KP1 antibody (Catalog# M0814, Lot#46406, Expiration date: September 2011) was purchased from Dako (Carpinteria, Calif., United States) and stored at 2-8° C. in accordance with accompanying documentation. The mouse IgG isotype control antibody (Lot#37211, Expiration date: July 2010) was purchased from Dako and stored at 2-8° C. in accordance with accompanying documentation. IHC was performed in accordance with Mosaic Laboratories' SOPs. The CD68 IHC assay was designed and validated to be compatible with CLIA guidelines for “homebrew” class I test validation.
# For IHC biomarker analysis, the Biomarker Analysis Set was used, which included all patients who received at least one dose of study treatment. The following efficacy endpoints were analyzed: PFS, OS, and objective response rate (ORR). Summary statistics were provided for percent and density of positive cells by response category (complete response [CR]+partial response [PR] versus stable disease [SD]+progressive disease [PD]) for each marker). The Wilcoxon Rank Sum test was performed to test for difference between response categories. Fisher's exact test was used to test for association between response category and biomarker stratum using median value as cut off point.
# [1] = patients with <median CD68 cell density (cut off 0.08 cells/mm^2)
# [2] = patients with <median CD68 percentage of positive cells (cut off 5.21%)
# [3] = patients with >=median CD68 cell density (cut off 0.08 cells/mm^2)
# [4] = patients with >=median CD68 percentage of positive cells (cut off 5.21%)
smiles,measurement,setting,value
"CNC(=O)c1ccccc1Sc1ccc2c(/C=C/c3ccccn3)n[nH]c2c1 [axitinib, 6-[2-(methylcarbamoyl)phenylsulfanyl]-3-E-[2-(pyridin-2-yl)ethenyl]indazole]",hazard ratio (HR) for OS,">=median vs <median CD68 values, all cases, not statistically significant",> 0.6
same,hazard ratio [HR] for PFS,">=median vs <median CD68 values, logrank p-value<=0.01, all patients regardless of prior treatment",0.42
same,median OS,[1],17.8 months
same,median progression free survival (PFS),[1],3.8 months
same,median OS,[2],21.8 months
same,median progression free survival (PFS),[2],3.7 months
same,median OS,[3],22.6 months
same,median progression free survival (PFS),[3],12.0 months
same,median OS,[4],20.0 months
same,median progression free survival (PFS),[4],12.0 months
